Counter-ions that a name gives are not always drawn. Like-named read-outs stand apart in the source and are kept apart here.
Tests used:
human LSD1 protein = molecular target: T1, human LSD1 protein (Homo sapiens, UniProt O60341); assay: Measurement of LSD1 inhibitory activity (in vitro); assay type: biochemical
T1 construct: purchased Abcam ab80379
Method: To measure the inhibitory activity, first, the compound of the present invention was serially diluted in dimethylsulfoxide (DMSO). Sequentially, the solution of the compound of the present invention in DMSO (final concentration of DMSO: 5%) and human LSD1 protein (Abcam, ab80379) were added to a reaction buffer (25 mM Tris-HCl (pH 7.5), 50 mM KCl, 2 mM CHAPS, 1 mM DTT, 0.02% BSA). The mixture was preincubated at 25° C. for 30 minutes. […] Tranylcypromine (final concentration: 3 mM) was then added thereto to terminate the reaction.

[1] = system: NCI-H146 cells (human small-cell lung cancer cell lines); assay: Cell-growth inhibition test: NCI-H146 cells; assay type: cell-based; conditions: Homo sapiens
Method in brief: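 NCI-H146 small-cell lung cancer cells were cultured with compound or DMSO for 10 days at 37°C, 5% CO2. Viability read by CellTiter-Glo luminescence; growth rate (%) = treated/DMSO luminescence × 100.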

[2] = system: NCI-H1417 cells (human small-cell lung cancer cell lines); assay: cells; conditions: NCI-H1417, read-out: Cell-Growth Inhibition Test: NCI-H1417 Cells IC50 (nM);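 note: growth of NCI-H1417 cells over 10 days at 37 °C, read as viable-cell luminescence by CellTiter-Glo 2.0, expressed as % of DMSO-only control wells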
[3] = system: HEL cells (human acute myelocytic leukemia cell lines); assay: cells; conditions: read-out: Cell-Growth Inhibition Test: HEL Cells IC50 (nM);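 note: viable cell count by CellTiter-Glo 2.0 luminescence after 5 days of culture at 37 °C, growth expressed relative to DMSO-only wells as 100%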
[4] = NCI-H146, read-out: Cell-Growth Inhibition Test: NCI-H146 Cells IC50
[5] = NCI-H146, read-out: Cell-Growth Inhibition Test: NCI-H146 Cells IC50 (nM)
[6] = human LSD1 protein, H3K4 (Me1)-biotin-labeled peptide 200 nM, preincubated 30 minutes, read-out: LSD1 inhibitory activity IC50

Row | SMILES | IC50 (human LSD1 protein) [pM] | IC50 [1, 4] [nM] | IC50 [2] [nM] | IC50 [1, 5] [nM] | IC50 [3] [nM] | IC50 (human LSD1 protein; [6]) [pM]
1 | Cn1cc(C(N)=O)c2cc(-c3ccc(C(=O)N4C5CCC4C(N)C5)cc3-c3ccc(C#N)c(F)c3)c(F)cc21 [Example 236, 5-(5-((1S,2S,4R)-rel-2-amino-7-azabicyclo[2.2.1]heptane-7-carbonyl)-4′-cyano-3′-fluoro-[1,1′-biphenyl]-2-yl)-6-fluoro-1-methyl-1H-indole-3-carboxyamide-isomer-X] | 280 | 28.5 | 11 |  |  | 
2 | Cc1c(F)c(-c2ccc(C(=O)N3[C@@H]4CC[C@H]3C[C@@H](N)C4)cc2-c2ccc(C#N)c(F)c2)cc2nnn(CC3(O)CCC3)c12 [Example 272, 5′-((3-endo)-3-amino-8-azabicyclo[3.2.1]octane-8-carbonyl)-3-fluoro-2′-(6-fluoro-1-((1-hydroxycyclobutyl)methyl)-7-methyl-1H-benzo[d][1,2,3]triazol-5-yl)-[1,1′-biphenyl]-4-carbonitrile] |  |  | 0.81 | 3.17 | 1.52 | 
3 | CC(C)(O)Cn1nnc2cc(-c3ccc(C(=O)N4[C@@H]5CC[C@H]4C[C@@H](N)C5)cc3-c3ccc(C#N)c(F)c3)c(F)c(Br)c21 [Example 275, 5′-((3-endo)-3-amino-8-azabicyclo[3.2.1]octane-8-carbonyl)-2′-(7-bromo-6-fluoro-1-(2-hydroxy-2-methylpropyl)-1H-benzo[d][1,2,3]triazol-5-yl)-3-fluoro-[1,1′-biphenyl]-4-carbonitrile] |  |  | 0.59 | 1.78 | 0.99 | 
4 | CC(C)(O)Cn1nnc2cc(-c3ccc(C(=O)N4[C@@H]5CC[C@H]4C[C@@H](N)C5)cc3-c3ccc(C#N)c(F)c3)c(F)c(C3CC3)c21 [Example 281, 5′-((3-endo)-3-amino-8-azabicyclo[3.2.1]octane-8-carbonyl)-2′-(7-cyclopropyl-6-fluoro-1-(2-hydroxy-2-methylpropyl)-1H-benzo[d][1,2,3]triazol-5-yl)-3-fluoro-[1,1′-biphenyl]-4-carbonitrile] |  |  | 8.5 | 32.3 | 23.9 | 
5 | Cc1ccc(-c2ccc(CN3C4CCC3C(N)C4)cc2-c2ccc(C#N)c(F)c2)c(F)c1 [Example 283, 5′-(((1S,2S,4R)-rel-2-amino-7-azabicyclo[2.2.1]heptan-7-yl)methyl)-2″,3-difluoro-4″-methyl-[1,1′:2′,1″-terphenyl]-4-carbonitrile-isomer-X] |  |  | 2.1 | 11.1 | 0.79 | 
6 | CC(C)(O)Cn1nnc2cc(-c3ccc(CN4C5CCC4C(N)C5)cc3-c3ccc(C#N)c(F)c3)c(F)c(F)c21 [Example 285, 5′-(((1S,2S,4R)-rel-2-amino-7-azabicyclo[2.2.1]heptan-7-yl)methyl)-2′-(6,7-difluoro-1-(2-hydroxy-2-methylpropyl)-1H-benzo[d][1,2,3]triazol-5-yl)-3-fluoro-[1,1′-biphenyl]-4-carbonitrile-isomer-X dihydrochloride] |  |  | 0.09 | 0.49 | 0.046 | 
7 | N#Cc1ccc(-c2cc(CN3C4CCC3C(N)C4)ccc2-c2cc3nnn(CC4(O)CCC4)c3c(Cl)c2F)cc1F [Example 286, 5′-(((1S,2S,4R)-rel-2-amino-7-azabicyclo[2.2.1]heptan-7-yl)methyl)-2′-(7-chloro-6-fluoro-1-((1-hydroxycyclobutyl)methyl)-1H-benzo[d][1,2,3]triazol-5-yl)-3-fluoro-[1,1′-biphenyl]-4-carbonitrile-isomer-X dihydrochloride] |  |  | 0.083 | 0.17 | 0.036 | 
8 | CCC(O)(CC)Cn1nnc2cc(-c3ccc(CN4C5CCC4C(N)C5)cc3-c3ccc(C#N)c(F)c3)c(F)c(Cl)c21 [Example 288, 5′-(((1S,2S,4R)-rel-2-amino-7-azabicyclo[2.2.1]heptan-7-yl)methyl)-2′-(7-chloro-1-(2-ethyl-2-hydroxybutyl)-6-fluoro-1H-benzo[d][1,2,3]triazol-5-yl)-3-fluoro-[1,1′-biphenyl]-4-carbonitrile-isomer-X dihydrochloride] |  |  | 0.22 | 1.29 | 0.062 | 
9 | CC(C)(O)Cn1ccc2cc(-c3ccc(CN4C5CCC4C(N)C5)cc3-c3ccc(C#N)c(F)c3)c(F)cc21 [Example 289, 5′-(((1S,2S,4R)-rel-2-amino-7-azabicyclo[2.2.1]heptan-7-yl)methyl)-3-fluoro-2′-(6-fluoro-1-(2-hydroxy-2-methylpropyl)-1H-indol-5-yl)-[1,1′-biphenyl]-4-carbonitrile-isomer-X dihydrochloride] |  |  | 0.094 | 0.97 | 0.038 | 
10 | CC(C)(O)Cc1ccc(-c2ccc(CN3CC[C@H](N)C3)cc2-c2ccc(C#N)c(F)c2)c(F)c1 [Example 291, (S)-5′-((3-aminopyrrolidin-1-yl)methyl)-2″,3-difluoro-4″-(2-hydroxy-2-methylpropyl)-[1,1′:2′,1″-terphenyl]-4-carbonitrile dihydrochloride] |  |  | 4.65 | 10.4 | 1.21 | 
11 | Cc1ccc(-c2ccc(C(C)N3C4CCC3C(N)C4)cc2-c2ccc(C#N)c(F)c2)c(F)c1 [Example 292, 5′-(1-((1S,2S,4R)-rel-2-amino-7-azabicyclo[2.2.1]heptan-7-yl)ethyl)-2″,3-difluoro-4″-methyl-[1,1′:2′,1″-terphenyl]-4-carbonitrile-isomer-X dihydrochloride] |  |  | 3.29 | 10.3 | 0.91 | 
12 | CCC(O)(CC)Cn1nnc2cc(-c3ccc(CN4C5CCC4C(N)C5)cc3-c3ccc(C#N)c(F)c3)c(F)c(F)c21 [Example 293, 5′-(((1S,2S,4R)-rel-2-amino-7-azabicyclo[2.2.1]heptan-7-yl)methyl)-2′-(1-(2-ethyl-2-hydroxybutyl)-6,7-difluoro-1H-benzo[d][1,2,3]triazol-5-yl)-3-fluoro-[1,1′-biphenyl]-4-carbonitrile-isomer-X dihydrochloride] |  |  | 0.22 | 0.08 | 0.081 | 
13 | CC(C)(O)Cn1nnc2cc(-c3ccc(CN4C5CCC4C(N)C5)cc3-c3ccc(C#N)c(F)c3)c(F)c(Br)c21 [Example 294, 5′-(((1S,2S,4R)-rel-2-amino-7-azabicyclo[2.2.1]heptan-7-yl)methyl)-2′-(7-bromo-6-fluoro-1-(2-hydroxy-2-methylpropyl)-1H-benzo[d][1,2,3]triazol-5-yl)-3-fluoro-[1,1′-biphenyl]-4-carbonitrile-isomer-X dihydrochloride] |  |  | 0.055 | 4.05 | 0.04 | 
14 | CCC(O)(CC)Cn1nnc2cc(-c3ccc(CN4C5CCC4C(N)C5)cc3-c3ccc(C#N)c(F)c3)c(F)c(Br)c21 [Example 295, 5′-(((1S,2S,4R)-rel-2-amino-7-azabicyclo[2.2.1]heptan-7-yl)methyl)-2′-(7-bromo-1-(2-ethyl-2-hydroxybutyl)-6-fluoro-1H-benzo[d][1,2,3]triazol-5-yl)-3-fluoro-[1,1′-biphenyl]-4-carbonitrile-isomer-X dihydrochloride] |  |  | 0.066 | 0.24 | 0.049 | 
15 | CC(C)(O)Cn1ncc2cc(-c3ccc(CN4CC5CNCC5C4)cc3-c3ccc(C#N)c(F)c3)c(F)cc21 (stereo not shown) [Example 297, 3-fluoro-2′-(6-fluoro-1-(2-hydroxy-2-methylpropyl)-1H-indazol-5-yl)-5′-((hexahydropyrrolo[3,4-c]pyrrol-2(1H)-yl)methyl)-[1,1′-biphenyl]-4-carbonitrile dihydrochloride] |  | 8.26 | 3.8 |  | 2.68 | 400
16 | CC(C)(O)Cn1ncc2cc(-c3ccc(CN4CC5(CCCNC5)C4)cc3-c3ccc(C#N)c(F)c3)c(F)cc21 [Example 298, 5′-((2,6-diazaspiro[3.5]nonan-2-yl)methyl)-3-fluoro-2′-(6-fluoro-1-(2-hydroxy-2-methylpropyl)-1H-indazol-5-yl)-[1,1′-biphenyl]-4-carbonitrile dihydrochloride] |  | 1 | 1.72 |  | 0.46 | 200
17 | CC(C)(O)Cn1ncc2cc(-c3ccc(CN4[C@@H]5CC[C@H]4C[C@@H](N)C5)cc3-c3ccc(C#N)c(F)c3)c(F)cc21 [Example 299, 5′-((3-endo)-amino-8-azabicyclo[3.2.1]octan-8-yl)methyl)-3-fluoro-2′-(6-fluoro-1-(2-hydroxy-2-methylpropyl)-1H-indazol-5-yl)-[1,1′-biphenyl]-4-carbonitrile dihydrochloride] | 200 | < 1.37 | 0.949 |  | 0.43 | 
18 | CC(C)(O)Cn1ncc2cc(-c3ccc(CN4CCC5(CNC5)C4)cc3-c3ccc(C#N)c(F)c3)c(F)cc21 [Example 300, 5′-((2,6-diazaspiro[3.4]octan-6-yl)methyl)-3-fluoro-2′-(6-fluoro-1-(2-hydroxy-2-methylpropyl)-1H-indazol-5-yl)-[1,1′-biphenyl]-4-carbonitrile dihydrochloride] |  | 0.7 | 1.53 |  | 0.6 | 230

From US11479563B2, “Biphenyl compound or salt thereof” (TAIHO PHARMACEUTICAL CO., LTD., priority 2017, dated 2022)
